The values below are quoted from earlier work in article PMC9186412, “Rational Framework for the Design of Trp- and Arg-Rich Peptide Antibiotics Against Multidrug-Resistant Bacteria” (Frontiers in Microbiology, 2022).

Read-outs that look alike come from different tables or passages of the source.

This data set deals with CDC AR isolates. The arrangement: key: S (green), susceptible; I (blue), intermediate; R (red), resistant. As to conditions: data provided by the CDC, ref CDC, cited from earlier work. The source says: Supplement Table_3.XLSX, sheet "CDC AR isolates profiles" | column: G(-) strains
[1] abbreviates: Acinetobacter baumannii AB273, CDC AR isolate.
[2] abbreviates: Acinetobacter baumannii AB274, CDC AR isolate.
[3] abbreviates: Acinetobacter baumannii AB275, CDC AR isolate.
[4] abbreviates: Acinetobacter baumannii AB276, CDC AR isolate.
The mark [5] stands for this setting: Enterobacter cloacae E62, CDC AR isolate.
The mark [6] stands for this setting: Enterobacter cloacae E544, CDC AR isolate.
Where [7] appears, read: Enterobacter cloacae E545, CDC AR isolate.
The mark [8] stands for this setting: Enterobacter cloacae E546, CDC AR isolate.
The mark [9] stands for this setting: Escherichia coli EC541, CDC AR isolate.
Setting [10] is: Escherichia coli EC543, CDC AR isolate.
[11] abbreviates: Escherichia coli EC544, CDC AR isolate.
The mark [12] stands for this setting: Escherichia coli EC549, CDC AR isolate.
Where [13] appears, read: Klebsiella pneumoniae KP542, CDC AR isolate.
Setting [14] is: Klebsiella pneumoniae KP548, CDC AR isolate.
Setting [15] is: Klebsiella pneumoniae KP550, CDC AR isolate.
[16] abbreviates: Klebsiella pneumoniae KP552, CDC AR isolate.
Setting [17] is: Pseudomonas aeruginosa PA229, CDC AR isolate.
Setting [18] is: Pseudomonas aeruginosa PA230, CDC AR isolate.
Setting [19] is: Pseudomonas aeruginosa PA231, CDC AR isolate.
Setting [20] is: Pseudomonas aeruginosa PA232, CDC AR isolate.
The mark [21] stands for this setting: Pseudomonas aeruginosa PA239, CDC AR isolate.

As to `NCC[C@H](O)C(=O)N[C@@H]1C[C@H](N)[C@@H](O[C@H]2O[C@H](CN)[C@@H](O)[C@H](O)[C@H]2O)[C@H](O)[C@H]1O[C@H]1O[C@H](CO)[C@@H](O)[C@H](N)[C@H]1O` [Amikacin], the Antibiotic susceptibility profile entry by setting is: under setting [1], “R”; under setting [2], “S”; under setting [3], “R”; under setting [4], “I”; under setting [5], “S”; under setting [6], “S”. Besides, the Antibiotic susceptibility profile entry was “S” under setting [7]; “R” under setting [8]; “R” under setting [9]; “S” under setting [10]; “S” under setting [11]; “S” under setting [12]. Further, the Antibiotic susceptibility profile result under setting [13] is listed as “R”; the Antibiotic susceptibility profile result under setting [14] is given as “S”; the Antibiotic susceptibility profile result under setting [15] is reported as “S”; the Antibiotic susceptibility profile result under setting [16] is on record as “S”; the Antibiotic susceptibility profile entry under setting [17] is “S”; the Antibiotic susceptibility profile result under setting [18] is “R”. The Antibiotic susceptibility profile result is given as “S” under setting [19], “S” under setting [20] and “R” under setting [21].

For the compound `C[C@H]1[C@H](NC(=O)/C(=N\OC(C)(C)C(=O)O)c2csc(N)n2)C(=O)N1S(=O)(=O)O` [Azreonam], the Antibiotic susceptibility profile entry under setting [9] is “R”; the Antibiotic susceptibility profile result under setting [10] is “R”; the Antibiotic susceptibility profile result under setting [11] is “R”; the Antibiotic susceptibility profile entry under setting [12] is on record as “R”; the Antibiotic susceptibility profile result under setting [13] is reported as “R”; the Antibiotic susceptibility profile entry under setting [14] is “R”. Moreover, the Antibiotic susceptibility profile result under setting [15] was “R”; the Antibiotic susceptibility profile result under setting [16] is on record as “R”; the Antibiotic susceptibility profile result under setting [17] is “R”; the Antibiotic susceptibility profile entry under setting [18] is on record as “S”; the Antibiotic susceptibility profile result under setting [19] is on record as “R”; the Antibiotic susceptibility profile entry under setting [20] was “S”. Under setting [21], the Antibiotic susceptibility profile entry is on record as “R”.

Regarding `CO/N=C(\C(=O)N[C@@H]1C(=O)N2C(C(=O)[O-])=C(C[N+]3(C)CCCC3)CS[C@H]12)c1csc(N)n1` [Cefepime], the Antibiotic susceptibility profile result is, setting by setting: under setting [1], “R”; under setting [2], “R”; under setting [3], “R”; under setting [4], “R”; under setting [5], “S”; under setting [6], “R”. The Antibiotic susceptibility profile entry under setting [7] is given as “R”; the Antibiotic susceptibility profile entry under setting [8] is on record as “R”; the Antibiotic susceptibility profile entry under setting [9] is given as “R”; the Antibiotic susceptibility profile result under setting [10] was “R”; the Antibiotic susceptibility profile entry under setting [11] was “R”; the Antibiotic susceptibility profile entry under setting [12] was “R”. Further, the Antibiotic susceptibility profile entry is, setting by setting: under setting [13], “R”; under setting [14], “R”; under setting [15], “R”; under setting [16], “R”; under setting [17], “R”; under setting [18], “R”. The Antibiotic susceptibility profile result is “R” under setting [19], “S” under setting [20] and “R” under setting [21].

Turning to `CO/N=C(\C(=O)N[C@@H]1C(=O)N2C(C(=O)O)=C(COC(C)=O)CS[C@H]12)c1csc(N)n1` [Cefotaxime], the Antibiotic susceptibility profile result reads like this: under setting [1], “R”; under setting [2], “R”; under setting [3], “R”; under setting [4], “R”; under setting [5], “R”; under setting [6], “R”. Also, the Antibiotic susceptibility profile result runs as follows: under setting [7], “R”; under setting [8], “R”; under setting [9], “R”; under setting [10], “R”; under setting [11], “R”; under setting [12], “R”. The Antibiotic susceptibility profile entry is, setting by setting: under setting [13], “R”; under setting [14], “R”; under setting [15], “R”; under setting [16], “R”.

For `CO/N=C(\C(=O)N[C@@H]1C(=O)N2C(C(=O)O)=C(CSc3nc(=O)c(=O)[nH]n3C)CS[C@H]12)c1csc(N)n1` [Ceftriaxone], the Antibiotic susceptibility profile entry runs as follows: under setting [1], “R”; under setting [2], “R”; under setting [3], “R”; under setting [4], “R”; under setting [5], “R”; under setting [6], “R”. In addition, the Antibiotic susceptibility profile entry was “R” under setting [7]; “R” under setting [8]; “R” under setting [9]; “R” under setting [10]; “R” under setting [11]; “R” under setting [12]. The Antibiotic susceptibility profile entry is “R” under setting [13], “R” under setting [14], “R” under setting [15] and “R” under setting [16].

On to `O=C(O)c1cn(C2CC2)c2cc(N3CCNCC3)c(F)cc2c1=O` [Ciprofloxacin], for which the Antibiotic susceptibility profile entry under setting [1] was “R”; the Antibiotic susceptibility profile entry under setting [2] is “R”; the Antibiotic susceptibility profile entry under setting [3] is reported as “R”; the Antibiotic susceptibility profile entry under setting [4] is recorded as “R”; the Antibiotic susceptibility profile entry under setting [17] is “R”; the Antibiotic susceptibility profile entry under setting [18] is reported as “R”. In addition, the Antibiotic susceptibility profile entry was “R” under setting [19], “R” under setting [20] and “R” under setting [21].

Take `C[C@@H](O)[C@H]1C(=O)N2C(C(=O)O)=C(S[C@@H]3CN[C@H](CNS(N)(=O)=O)C3)[C@H](C)[C@H]12` [Doripenem]: the Antibiotic susceptibility profile result was “R” under setting [1]; “R” under setting [2]; “R” under setting [3]; “R” under setting [4]; “S” under setting [5]; “R” under setting [6]. The Antibiotic susceptibility profile entry is, setting by setting: under setting [7], “S”; under setting [8], “R”; under setting [9], “S”; under setting [10], “I”; under setting [11], “R”; under setting [12], “R”. Further, the Antibiotic susceptibility profile result was “I” under setting [13]; “R” under setting [14]; “R” under setting [15]; “R” under setting [16]; “R” under setting [17]; “R” under setting [18]. Also, the Antibiotic susceptibility profile entry reads like this: under setting [19], “R”; under setting [20], “S”; under setting [21], “R”.

Turning to `C[C@@H](O)[C@H]1C(=O)N2C(C(=O)O)=C(S[C@@H]3CN[C@H](C(=O)Nc4cccc(C(=O)O)c4)C3)[C@H](C)[C@H]12` [Ertapenem], the Antibiotic susceptibility profile entry is, setting by setting: under setting [5], “S”; under setting [7], “S”; under setting [9], “I”; under setting [10], “R”; under setting [11], “R”; under setting [12], “R”. In addition, the Antibiotic susceptibility profile result is given as “R” under setting [13], “R” under setting [14], “R” under setting [15] and “R” under setting [16].

For `C[C@@H](O)[C@H]1C(=O)N2C(C(=O)O)=C(SCCN=CN)C[C@H]12` [Imipenem], the Antibiotic susceptibility profile entry is “R” under setting [1]; “R” under setting [2]; “R” under setting [3]; “S” under setting [4]; “S” under setting [5]; “R” under setting [6]. Further, the Antibiotic susceptibility profile result runs as follows: under setting [7], “I”; under setting [8], “R”; under setting [9], “I”; under setting [10], “S”; under setting [11], “R”; under setting [12], “I”. For the same compound, the Antibiotic susceptibility profile entry under setting [13] was “I”; the Antibiotic susceptibility profile result under setting [14] was “R”; the Antibiotic susceptibility profile entry under setting [15] was “R”; the Antibiotic susceptibility profile entry under setting [16] was “R”; the Antibiotic susceptibility profile result under setting [17] is on record as “R”; the Antibiotic susceptibility profile result under setting [18] is listed as “R”. The Antibiotic susceptibility profile entry reads like this: under setting [19], “R”; under setting [20], “R”; under setting [21], “R”.
